The numbers were not newly measured in paper PMC11686138 (Nature Communications, 2024), which cites them from elsewhere.

In the data set the target is CLDN4. To be noted: reported KD.

By Kd is commonly meant the free concentration of one partner at which half of the binding sites on the other are occupied at equilibrium, for simple one-to-one binding. Consider NSSYSGNYYSIL [Cpe30 MT2], for which the Kd is 1.97 nM.
